Reference: PMC9927415, “Tyrosine Kinase Inhibitors Display Potent Activity against Cryptosporidium parvum” (Microbiology Spectrum, 2022)

How the values were obtained:
Assay in all cases: KINOMEscan competitive binding, whole panel
[1] = molecular target: T1, panel of 203 kinases (Homo sapiens, UniProt Q8IWQ3); conditions: 10 µM, n=1; kinase BRSK2; read-out: Percent inhibition BRSK2
T1 construct: purchased DiscoverX (KINOMEscan)
T1 sequence (Q8IWQ3 1-736): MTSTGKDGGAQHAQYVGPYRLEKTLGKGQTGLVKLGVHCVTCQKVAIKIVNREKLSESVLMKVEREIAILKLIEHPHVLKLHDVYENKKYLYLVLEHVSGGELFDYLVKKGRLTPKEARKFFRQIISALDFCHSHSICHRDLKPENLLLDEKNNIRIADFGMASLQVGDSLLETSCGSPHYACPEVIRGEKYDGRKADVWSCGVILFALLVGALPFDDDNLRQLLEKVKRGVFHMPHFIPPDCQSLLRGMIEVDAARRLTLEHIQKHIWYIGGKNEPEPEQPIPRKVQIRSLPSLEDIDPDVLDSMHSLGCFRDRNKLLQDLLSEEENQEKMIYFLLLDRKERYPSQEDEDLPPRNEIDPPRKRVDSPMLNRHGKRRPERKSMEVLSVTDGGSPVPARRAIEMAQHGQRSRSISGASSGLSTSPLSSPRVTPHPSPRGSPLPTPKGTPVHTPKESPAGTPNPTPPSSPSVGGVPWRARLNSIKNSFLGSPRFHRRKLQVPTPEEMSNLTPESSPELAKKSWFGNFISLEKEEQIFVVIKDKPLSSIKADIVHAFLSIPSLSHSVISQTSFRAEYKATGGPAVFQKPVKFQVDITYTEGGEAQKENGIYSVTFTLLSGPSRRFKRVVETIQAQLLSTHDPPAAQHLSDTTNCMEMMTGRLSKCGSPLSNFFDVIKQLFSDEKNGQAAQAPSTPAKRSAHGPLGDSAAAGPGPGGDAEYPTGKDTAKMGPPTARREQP
How it was run: (§1)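 T7 phage-fused kinases; compound displaces immobilized ATP-site probe ligand; bead-bound kinase quantified; % inhibition reported.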

[2] = molecular target: T2, panel of 203 kinases (Homo sapiens, UniProt Q15375); conditions: 10 µM, n=1; kinase EPHA7; read-out: Percent inhibition EPHA7
T2 construct: purchased DiscoverX (KINOMEscan)
How it was run: as §1

[3] = molecular target: T3, panel of 203 kinases (Homo sapiens, UniProt Q9P2K8, S808G); conditions: 10 µM, n=1; kinase GCN2(Kin.Dom.2,S808G); read-out: Percent inhibition GCN2(Kin.Dom.2,S808G)
T3 construct: purchased DiscoverX (KINOMEscan)
How it was run: as §1

[4] = molecular target: T4, panel of 203 kinases (Homo sapiens, UniProt Q9UEE5); conditions: 10 µM, n=1; kinase DRAK1; read-out: Percent inhibition DRAK1
T4 construct: purchased DiscoverX (KINOMEscan)
T4 sequence (Q9UEE5 1-414): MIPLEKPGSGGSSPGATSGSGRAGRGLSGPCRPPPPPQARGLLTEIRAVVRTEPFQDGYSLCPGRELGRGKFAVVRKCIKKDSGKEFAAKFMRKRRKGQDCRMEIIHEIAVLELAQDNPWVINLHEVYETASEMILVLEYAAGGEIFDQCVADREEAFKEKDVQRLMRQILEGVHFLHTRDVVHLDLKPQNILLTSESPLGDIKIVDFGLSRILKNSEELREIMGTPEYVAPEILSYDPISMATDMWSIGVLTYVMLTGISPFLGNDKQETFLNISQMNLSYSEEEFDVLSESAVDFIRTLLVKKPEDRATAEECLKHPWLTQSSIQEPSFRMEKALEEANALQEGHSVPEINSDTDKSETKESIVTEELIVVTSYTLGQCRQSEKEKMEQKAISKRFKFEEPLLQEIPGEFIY
How it was run: as §1

[5] = molecular target: T5, panel of 203 kinases (Homo sapiens, UniProt Q7KZI7); conditions: 10 µM, n=1; kinase MARK2; read-out: Percent inhibition MARK2
T5 construct: purchased DiscoverX (KINOMEscan)
How it was run: as §1

[6] = molecular target: T6, panel of 203 kinases (Homo sapiens, UniProt P19784); conditions: 10 µM, n=1; kinase CSNK2A2; read-out: Percent inhibition CSNK2A2
T6 construct: purchased DiscoverX (KINOMEscan)
How it was run: as §1

[7] = molecular target: T7, panel of 203 kinases (Homo sapiens, UniProt P14616); conditions: 10 µM, n=1; kinase INSRR; read-out: Percent inhibition INSRR
T7 construct: purchased DiscoverX (KINOMEscan)
How it was run: as §1

[8] = molecular target: T8, panel of 203 kinases (Homo sapiens, UniProt Q9UIK4); conditions: 10 µM, n=1; kinase DAPK2; read-out: Percent inhibition DAPK2
T8 construct: purchased DiscoverX (KINOMEscan)
How it was run: as §1

[9] = molecular target: T9, panel of 203 kinases (Homo sapiens, UniProt Q06187); conditions: 10 µM, n=1; kinase BTK; read-out: Percent inhibition BTK
T9 construct: purchased DiscoverX (KINOMEscan)
How it was run: as §1

[10] = molecular target: T10, panel of 203 kinases (Homo sapiens, UniProt Q9Y243); conditions: 10 µM, n=1; kinase AKT3; read-out: Percent inhibition AKT3
T10 construct: purchased DiscoverX (KINOMEscan)
How it was run: as §1

[11] = molecular target: T11, panel of 203 kinases (Homo sapiens, UniProt P51955); conditions: 10 µM, n=1; kinase NEK2; read-out: Percent inhibition NEK2
T11 construct: purchased DiscoverX (KINOMEscan)
T11 sequence (P51955 1-445): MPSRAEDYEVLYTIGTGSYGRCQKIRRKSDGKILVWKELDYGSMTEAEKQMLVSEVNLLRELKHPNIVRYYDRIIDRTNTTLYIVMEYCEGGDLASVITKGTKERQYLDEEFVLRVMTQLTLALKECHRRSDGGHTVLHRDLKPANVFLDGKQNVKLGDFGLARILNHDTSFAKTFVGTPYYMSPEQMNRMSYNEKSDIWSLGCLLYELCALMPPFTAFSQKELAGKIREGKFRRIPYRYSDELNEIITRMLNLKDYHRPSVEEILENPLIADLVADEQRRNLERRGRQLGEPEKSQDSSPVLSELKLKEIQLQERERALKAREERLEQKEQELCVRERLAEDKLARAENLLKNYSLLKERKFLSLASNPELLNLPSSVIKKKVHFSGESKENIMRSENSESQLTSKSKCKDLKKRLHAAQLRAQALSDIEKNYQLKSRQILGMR
How it was run: as §1

[12] = molecular target: T12, panel of 203 kinases (Homo sapiens, UniProt Q9HAZ1); conditions: 10 µM, n=1; kinase CLK4; read-out: Percent inhibition CLK4
T12 construct: purchased DiscoverX (KINOMEscan)
How it was run: as §1

[13] = molecular target: T13, panel of 203 kinases (Homo sapiens, UniProt P51451); conditions: 10 µM, n=1; kinase BLK; read-out: Percent inhibition BLK
T13 construct: purchased DiscoverX (KINOMEscan)
How it was run: as §1

Structure (SMILES) | inhibition at 10 µM [1] [%] | inhibition at 10 µM [2] [%] | inhibition at 10 µM [3] [%] | inhibition at 10 µM [4] [%] | inhibition at 10 µM [5] [%] | inhibition at 10 µM [6] [%] | inhibition at 10 µM [7] [%] | inhibition at 10 µM [8] [%] | inhibition at 10 µM [9] [%] | inhibition at 10 µM [10] [%] | inhibition at 10 µM [11] [%] | inhibition at 10 µM [12] [%] | inhibition at 10 µM [13] [%]
CN1CCN(c2ccc(Nc3nccc(-c4cnn5ncccc45)n3)cc2C#N)CC1 [Compound 1] | 0 | 67.3 | 99.7 | 100 | 92 | 96.3 | 99.2 | 92.2 | 0 | 0 | 98.5 | 99.5 | 84.8
COc1ccc(Nc2nccc(-c3cnn4ncccc34)n2)cc1 [Compound 2] | 0 | 74.6 | 98.2 | 98.4 | 0 | 74.2 | 87.2 | 0 | 0 | 0 | 99.9 | 98.7 | 63.8
Cc1ccc(O)cc1Nc1ccnc(Nc2cccc(C(N)=O)c2)n1 [Compound 3] | 0 | 84 | 0 | 0 | 0 | 0 | 0 | 0 | 96 | 0 | 0 | 0 | 99.6
Cc1ccc(O)cc1N(C)c1ccnc(Nc2cccc(S(N)(=O)=O)c2)n1 [Compound 4] | 0 | 100 | 0 | 0 | 66 | 0 | 0 | 0 | 95 | 0 | 0 | 0 | 99.4
Fc1cccc(COc2ccc(Nc3ncnc4c3CN(CCN3CCOCC3)CC4)cc2Cl)c1 [Compound 6] | 0 | 0 | 0 | 0 | 0 | 0 | 0 | 0 | 0 | 0 | 0 | 0 | 0
COc1cc(Nc2nccc(-c3sc(N)nc3-c3cccc(NC(=O)c4c(F)cccc4F)c3)n2)cc(OC)c1OC [Compound 7] | 0 | 0 | 99.9 | 0 | 73.7 | 0 | 97.8 | 0 | 100 | 0 | 100 | 0 | 99
C[C@@H](Oc1cc(-c2cnc3ccccn23)sc1C(N)=O)c1ccccc1Cl [Compound 8] | 91.2 | 0 | 86.6 | 86.1 | 0 | 95.2 | 0 | 88.3 | 0 | 0 | 99.4 | 81 | 0
c1ccc(COc2cccc(-c3ccnc4[nH]ccc34)c2)cc1 [Compound 9] | 0 | 0 | 0 | 0 | 0 | 0 | 0 | 0 | 0 | 0 | 0 | 0 | 0
Clc1ccc(Nc2ncc(-c3ccccc3)s2)cc1 [Compound 10] | 0 | 0 | 0 | 0 | 0 | 0 | 0 | 0 | 0 | 0 | 0 | 0 | 0
Nc1ncc2c(-c3ccncc3)c[nH]c2n1 [Compound 11] | 0 | 0 | 88.5 | 92.8 | 0 | 0 | 0 | 0 | 0 | 0 | 0 | 93.4 | 0
